Test results as given in patent US9855230B2 (ViiV Healthcare UK (No. 5) Limited, priority 2014, dated 2018).
Counter-ions that a name gives are not always drawn. Like-named read-outs stand apart in the source and are kept apart here.

What was measured:
[1] = tested on: recombinant NL4-3 virus (nef section replaced with Renilla luciferase gene) in MT-2 cells; experiment: whole plant or invertebrate; assay type: cell-based, HIV; settings: NL43, luciferase activity in MT-2 cells infected 4-5 days with recombinant NL4-3 virus
In short: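 Nef-deleted NL4-3 reporter virus carrying Renilla luciferase was used to infect MT-2 cells in the presence of serial compound dilutions. After 4-5 days of infection, antiviral activity was quantified from luciferase activity using a live-cell substrate.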

[2] = Compound cytotoxicity (CC50), XTT-based colorimetric assay; assay type: cell-based; settings: human; uninfected MT2 cells, day 4, XTT assay
In short: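 Run under the antiviral-assay protocol but without virus. Viability was read on day 4 and CC50 values were derived from the readout.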

Q: With `Cc1ccccc1S(=O)(=O)NC(=O)N[C@@H](Cc1ccccc1)c1nccn1-c1cccc(-n2cccc2)c1` [Example 4, (S)-N-((1-(1-(3-(1H-pyrrol-1-yl)phenyl)-1H-imidazol-2-yl)-2-phenylethyl)carbamoyl)-2-methyl-benzenesulfonamide] as the compound, how does the EC50 ([1]; read-out: Activity) read?
A: > 1000 nM

Q: And the CC50 at 4 day [2]?
A: > 100 µM

Q: With `Cc1ccccc1S(=O)(=O)NC(=O)N[C@H](Cc1cc(F)cc(F)c1)c1ncccc1-c1ccc(F)c(C(N)=O)c1` [Example 117, (R)-5-(2-(2-(3,5-difluorophenyl)-1-(3-(o-tolylsulfonyl)ureido)ethyl)pyridin-3-yl)-2-fluorobenzamide, TFA] as the compound, how does the EC50 ([1]; read-out: Activity) read?
A: > 1000 nM

Q: And the EC50 ([1]; read-out: EC50)?
A: 8340 nM

Q: What about the CC50 at 4 day [2] of the same compound?
A: > 100 µM

Q: What does the source list for `Cc1ccccc1S(=O)(=O)NC(=O)N[C@@H](Cc1ccccc1)c1nccn1-c1ccc([N+](=O)[O-])cc1` [Example 33, (S)-2-methyl-N-((1-(1-(4-nitrophenyl)-1H-imidazol-2-yl)-2-phenylethyl)carbamoyl)benzenesulfonamide]?
A: EC50 ([1]; read-out: Activity): 100 to 1000 nM; EC50 ([1]; read-out: EC50): 190 nM; CC50 at 4 day [2]: > 100 µM

Q: For `COC(=O)Nc1ccc(-n2ccnc2[C@H](Cc2ccccc2)NC(=O)NS(=O)(=O)c2ccccc2)cc1` [Example 37, (S)-methyl (4-(2-(2-phenyl-1-(3-(phenylsulfonyl)ureido)ethyl)-1H-imidazol-1-yl)phenyl)carbamate], which EC50 ([1]; read-out: Activity) is on record?
A: 100 to 1000 nM

Q: And the CC50 at 4 day [2]?
A: > 33 µM

Q: For `Cc1ccccc1S(=O)(=O)NC(=O)N[C@@H](Cc1cc(F)cc(F)c1)c1ncccc1-c1ccc(CN(C)C)cc1` [Example 120, (S)-N-((2-(3,5-difluorophenyl)-1-(3-(4-((dimethylamino)methyl)phenyl)pyridin-2-yl)ethyl)carbamoyl)-2-methylbenzenesulfonamide, TFA], which EC50 ([1]; read-out: Activity) is on record?
A: 100 to 1000 nM

Q: And the EC50 ([1]; read-out: EC50)?
A: 360 nM

Q: What about the CC50 at 4 day [2] of the same compound?
A: > 100 µM

Q: For `Cc1ccccc1S(=O)(=O)NC(=O)N[C@@H](Cc1ccccc1)c1nccn1-c1cccc(N2CCCC2)c1` [Example 68, (S)-2-methyl-N-((2-phenyl-1-(1-(3-(pyrrolidin-1-yl)phenyl)-1H-imidazol-2-yl)ethyl)carbamoyl)benzenesulfonamide], which EC50 ([1]; read-out: Activity) is on record?
A: 100 to 1000 nM

Q: And the CC50 at 4 day [2]?
A: > 100 µM

Q: With `Cc1ccccc1S(=O)(=O)NC(=O)N[C@@H](Cc1ccccc1)c1nccn1-c1ccc(-c2cnn(C)c2)cc1` [Example 61, (S)-2-methyl-N-((1-(1-(4-(1-methyl-1H-pyrazol-4-yl)phenyl)-1H-imidazol-2-yl)-2-phenylethyl)carbamoyl)benzenesulfonamide] as the compound, how does the EC50 ([1]; read-out: Activity) read?
A: < 100 nM

Q: What about the CC50 at 4 day [2] of the same compound?
A: > 33 µM

Q: For `Cc1nc2cc(-n3ccnc3[C@H](Cc3ccccc3)NC(=O)NS(=O)(=O)c3ccccc3C)ccc2s1` [Example 72, (S)-2-methyl-N-((1-(1-(2-methylbenzo[d]thiazol-5-yl)-1H-imidazol-2-yl)-2-phenylethyl)carbamoyl)benzenesulfonamide], which EC50 ([1]; read-out: Activity) is on record?
A: < 100 nM

Q: What about the EC50 ([1]; read-out: EC50) of the same compound?
A: 50 nM

Q: And the CC50 at 4 day [2]?
A: > 100 µM

Q: For `COc1ccc(-c2cccnc2[C@H](Cc2cc(F)cc(F)c2)NC(=O)NS(=O)(=O)c2ccccc2C)cc1` [Example 96, (S)-N-((2-(3,5-difluorophenyl)-1-(3-(4-methoxyphenyl)pyridin-2-yl)ethyl)carbamoyl)-2-methylbenzenesulfonamide, TFA], which EC50 ([1]; read-out: Activity) is on record?
A: 100 to 1000 nM

Q: And the EC50 ([1]; read-out: EC50)?
A: 590 nM

Q: What about the CC50 at 4 day [2] of the same compound?
A: > 33 µM

Q: Which results are given for `CCOC(=O)Nc1ccc(-n2ccnc2[C@H](Cc2ccccc2)NC(=O)NS(=O)(=O)c2ccccc2C)cc1` [Example 34, (S)-ethyl (4-(2-(2-phenyl-1-(3-(o-tolylsulfonyl)ureido)ethyl)-1H-imidazol-1-yl)phenyl)carbamate]?
A: EC50 ([1]; read-out: Activity): < 100 nM; CC50 at 4 day [2]: > 100 µM

Q: For `COC(=O)Nc1ccc(-n2ccnc2[C@H](Cc2ccccc2)NC(=O)NS(=O)(=O)c2c(F)cccc2F)cc1` [Example 50, (S)-methyl (4-(2-(1-(3-((2,6-difluorophenyl)sulfonyl)ureido)-2-phenylethyl)-1H-imidazol-1-yl)phenyl)carbamate], which EC50 ([1]; read-out: Activity) is on record?
A: 100 to 1000 nM

Q: What about the CC50 at 4 day [2] of the same compound?
A: > 100 µM

Q: What does the source list for `Cc1ccccc1S(=O)(=O)NC(=O)N[C@@H](Cc1ccccc1)c1nccn1-c1ccc2c(c1)CCO2` [Example 18, (S)-N-((1-(1-(2,3-dihydrobenzofuran-5-yl)-1H-imidazol-2-yl)-2-phenylethyl)carbamoyl)-2-methylbenzenesulfonamide]?
A: EC50 ([1]; read-out: Activity): < 100 nM; EC50 ([1]; read-out: EC50): 10 nM; CC50 at 4 day [2]: > 100 µM

Q: Which EC50 ([1]; read-out: Activity) does the source give for `Cc1ccccc1S(=O)(=O)NC(=O)N[C@@H](Cc1ccccc1)c1nccn1-c1ccc(Cl)cc1` [Example 14, (S)-N-((1-(1-(4-chlorophenyl)-1H-imidazol-2-yl)-2-phenylethyl)carbamoyl)-2-methylbenzenesulfonamide] here?
A: 100 to 1000 nM

Q: And the CC50 at 4 day [2]?
A: > 100 µM

Q: Which EC50 ([1]; read-out: Activity) does the source give for `Cc1ccccc1S(=O)(=O)NC(=O)N[C@@H](Cc1ccccc1)c1nccn1-c1cnn(-c2ccccc2)c1` [Example 80, (S)-2-methyl-N-((2-phenyl-1-(1-(1-phenyl-1H-pyrazol-4-yl)-1H-imidazol-2-yl)ethyl)carbamoyl)benzenesulfonamide] here?
A: < 100 nM

Q: And the CC50 at 4 day [2]?
A: > 100 µM

Q: What does the source list for `COc1ccc(-n2ccnc2[C@H](Cc2ccccc2)NC(=O)NS(=O)(=O)c2ccccc2Cl)cc1` [Example 6, (S)-2-chloro-N-((1-(1-(4-methoxyphenyl)-1H-imidazol-2-yl)-2-phenylethyl)carbamoyl)benzenesulfonamide]?
A: EC50 ([1]; read-out: Activity): < 100 nM; EC50 ([1]; read-out: EC50): 50 nM; CC50 at 4 day [2]: > 100 µM
